A value given as a limit tells only on which side of the number the result lay.

The first assay deals with T1, F508del (Homo sapiens, UniProt P13569, DEL508-508).
T1 construct: expressed in transfected cells
T1 sequence (P13569 with tags, fused parts or gaps DEL508-508): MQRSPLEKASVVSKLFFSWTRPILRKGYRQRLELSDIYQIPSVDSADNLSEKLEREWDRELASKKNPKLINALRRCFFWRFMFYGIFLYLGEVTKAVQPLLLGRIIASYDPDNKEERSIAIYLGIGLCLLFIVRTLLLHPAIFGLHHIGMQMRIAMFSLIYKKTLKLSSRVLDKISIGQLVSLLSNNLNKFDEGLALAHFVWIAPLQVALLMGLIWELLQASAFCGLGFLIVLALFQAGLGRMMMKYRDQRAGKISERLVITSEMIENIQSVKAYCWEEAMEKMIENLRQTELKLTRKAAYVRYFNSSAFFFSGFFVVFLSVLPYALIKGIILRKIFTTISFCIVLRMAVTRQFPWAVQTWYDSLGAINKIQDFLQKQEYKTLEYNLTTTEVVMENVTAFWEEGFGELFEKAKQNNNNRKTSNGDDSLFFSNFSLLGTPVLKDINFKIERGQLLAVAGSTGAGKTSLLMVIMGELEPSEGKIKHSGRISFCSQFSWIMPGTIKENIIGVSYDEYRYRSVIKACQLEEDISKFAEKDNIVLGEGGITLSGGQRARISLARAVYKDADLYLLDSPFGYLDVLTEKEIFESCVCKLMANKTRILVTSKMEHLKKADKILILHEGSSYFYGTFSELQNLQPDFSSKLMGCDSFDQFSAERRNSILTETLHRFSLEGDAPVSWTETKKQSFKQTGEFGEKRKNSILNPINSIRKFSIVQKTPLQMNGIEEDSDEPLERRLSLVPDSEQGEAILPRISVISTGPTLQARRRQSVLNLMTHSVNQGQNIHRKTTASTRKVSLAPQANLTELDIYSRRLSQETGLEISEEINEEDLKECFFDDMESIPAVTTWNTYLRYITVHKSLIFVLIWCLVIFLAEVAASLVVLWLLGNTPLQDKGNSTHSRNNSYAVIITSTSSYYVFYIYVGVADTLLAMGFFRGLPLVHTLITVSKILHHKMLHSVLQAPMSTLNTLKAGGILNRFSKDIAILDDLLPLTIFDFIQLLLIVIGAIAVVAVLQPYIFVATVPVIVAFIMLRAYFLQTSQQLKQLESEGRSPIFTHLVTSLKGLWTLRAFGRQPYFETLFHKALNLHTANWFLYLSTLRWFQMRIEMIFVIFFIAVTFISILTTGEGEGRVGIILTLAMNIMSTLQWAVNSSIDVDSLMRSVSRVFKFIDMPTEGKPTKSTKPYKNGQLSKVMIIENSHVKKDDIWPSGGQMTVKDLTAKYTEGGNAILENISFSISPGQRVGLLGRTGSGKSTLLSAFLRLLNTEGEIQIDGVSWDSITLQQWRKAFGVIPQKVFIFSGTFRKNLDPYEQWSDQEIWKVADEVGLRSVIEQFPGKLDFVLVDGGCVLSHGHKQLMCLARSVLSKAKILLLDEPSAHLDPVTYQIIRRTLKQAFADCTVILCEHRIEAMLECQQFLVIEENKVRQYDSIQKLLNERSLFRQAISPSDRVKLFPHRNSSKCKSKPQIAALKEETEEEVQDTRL
The experiment in a line: Protocol 2: FRET membrane potential optical assay (VIPR), identification of correction compounds. Type of assay: cell-based. To be noted: F508del CFTR modulator activity; compounds of Table 1; read-out: EC30. In a few lines:
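Mouse NIH3T3 cells, stable F508del; cpd 16 hrs, 37° C., serum-free; pos ctrl 27° C. 16 hrs. Rinse in Krebs Ringers, dye load, then add 10 μM forskolin + 20 μM genistein with Cl^−-free (gluconate) medium; depolarization by FRET voltage dyes.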
For the compound `CC1CN(c2ncccc2C(=O)NS(=O)(=O)c2cccc(OC3CCC[C@@H]3C)n2)C(C)(C)C1` (stereo in doubt) [Compound 2109, N—[[6-[(1S,2S)-2-methylcyclopentoxy]-2-pyridyl]sulfonyl]-2-(2,2,4-trimethylpyrrolidin-1-yl)pyridine-3-carboxamide], the 30% effect concentration (EC30) is < 3000 nM.

Regarding `CC1CN(c2ncccc2C(=O)NS(=O)(=O)c2cccc(OCC3CCOC3)n2)C(C)(C)C1` (stereo not shown) [Compound 2396, N—[[6-(tetrahydrofuran-3-ylmethoxy)-2-pyridyl]sulfonyl]-2-(2,2,4-trimethylpyrrolidin-1-yl)pyridine-3-carboxamide], the 30% effect concentration (EC30) lay in the range of 3000 to 10000 nM.

Turning to `CC1CN(c2ncccc2C(=O)NS(=O)(=O)c2cccc(Nc3ccc(C(F)(F)F)nc3)n2)C(C)(C)C1` (stereo not shown) [Compound 2466, N—[[6-[[6-(trifluoromethyl)-3-pyridyl]amino]-2-pyridyl]sulfonyl]-2-(2,2,4-trimethylpyrrolidin-1-yl)pyridine-3-carboxamide], the 30% effect concentration (EC30) is < 3000 nM. The same measure, in the same setting: under `C[C@@H]1CN(c2nc(C(C)(C)C)c(C3=CCN(C(=O)CC(C)(C)C)CC3)cc2C(=O)NS(=O)(=O)c2cccc(N)n2)C(C)(C)C1` [Compound 2344, N-[(6-amino-2-pyridyl)sulfonyl]-6-tert-butyl-5-[1-(3,3-dimethylbutanoyl)-3,6-dihydro-2H-pyridin-4-yl]-2-[(4S)-2,2,4-trimethylpyrrolidin-1-yl]pyridine-3-carboxamide] stands < 3000 nM. Same read-out and setting: under `CCCCN1CCCN(c2cccc(S(=O)(=O)NC(=O)c3cccnc3N3CC(C)CC3(C)C)n2)CC1` (stereo not shown) [Compound 2620, N—[[6-(4-butyl-1,4-diazepan-1-yl)-2-pyridyl]sulfonyl]-2-(2,2,4-trimethylpyrrolidin-1-yl)pyridine-3-carboxamide] stands 3000 to 10000 nM. As to `C[C@@H]1CN(c2nc(-c3ccc4c(ccn4C)c3)ccc2C(=O)NS(=O)(=O)c2cccnc2N)C(C)(C)C1` [Compound 2352, N-[(2-amino-3-pyridyl)sulfonyl]-6-(1-methylindol-5-yl)-2-[(4S)-2,2,4-trimethylpyrrolidin-1-yl]pyridine-3-carboxamide], the EC30 was < 3000 nM. On the same count and under the same terms, under `Cc1ccc(-c2ccc(C(=O)NS(=O)(=O)N3CC[C@H](N)C3)c(N3C[C@@H](C)CC3(C)C)n2)cc1C` [Compound 2605, N-[(3S)-3-aminopyrrolidin-1-yl]sulfonyl-6-(3,4-dimethylphenyl)-2-[(4S)-2,2,4-trimethylpyrrolidin-1-yl]pyridine-3-carboxamide] stands 3000 to 10000 nM. The same measure, in the same setting: as for `COc1ccc(F)c(-c2ccc(C(=O)NS(=O)(=O)c3cccnc3N)c(N3C[C@@H](C)CC3(C)C)n2)c1` [Compound 2474, N-[(2-amino-3-pyridyl)sulfonyl]-6-(2-fluoro-5-methoxy-phenyl)-2-[(4S)-2,2,4-trimethylpyrrolidin-1-yl]pyridine-3-carboxamide], the figure is < 3000 nM; as for `CC(C)COc1cc(F)cc(-c2ccc(C(=O)NS(=O)(=O)c3cccc(N)n3)c(N3CCC(C)CC(C)C3)n2)c1` (stereo not shown) [Compound 2479, N-[(6-amino-2-pyridyl)sulfonyl]-2-(3,5-dimethylazepan-1-yl)-6-(3-fluoro-5-isobutoxy-phenyl)pyridine-3-carboxamide], < 3000 nM; as for `CC(C)COc1cc(F)cc(-c2ccc(C(=O)NS(=O)(=O)c3cccc(N)n3)c(N3CCC[C@H]3C(=O)OC(C)(C)C)n2)c1` [Compound 2204, tert-butyl (2S)-1-[3-[(6-amino-2-pyridyl)sulfonylcarbamoyl]-6-(3-fluoro-5-isobutoxy-phenyl)-2-pyridyl]pyrrolidine-2-carboxylate], < 3000 nM. With `CCOc1ccc(-c2ccc(C(=O)NS(=O)(=O)N3CC[C@H](N)C3)c(N3C[C@@H](C)CC3(C)C)n2)cc1` [Compound 2525, N-[(3S)-3-aminopyrrolidin-1-yl]sulfonyl-6-(4-ethoxyphenyl)-2-[(4S)-2,2,4-trimethylpyrrolidin-1-yl]pyridine-3-carboxamide], the 30% effect concentration (EC30) fell in the range of 3000 to 10000 nM. In the case of `C[C@@H]1CC[C@H](C)N1c1nc(-n2ccc(-c3ccccc3)n2)ccc1C(=O)NS(=O)(=O)C1CC1` [Compound 2676, N-cyclopropylsulfonyl-2-[(2S,5R)-2,5-dimethylpyrrolidin-1-yl]-6-(3-phenylpyrazol-1-yl)pyridine-3-carboxamide], the 30% effect concentration (EC30) is < 3000 nM. Still for that read-out and setting: under `COc1ccc(-c2ccc(C(=O)NS(=O)(=O)c3cccnc3N)c(N3C[C@@H](C)CC3(C)C)n2)c(OC)n1` [Compound 2091, N-[(2-amino-3-pyridyl)sulfonyl]-6-(2,6-dimethoxy-3-pyridyl)-2-[(4S)-2,2,4-trimethylpyrrolidin-1-yl]pyridine-3-carboxamide] stands < 3000 nM.

The same assay, now with this note: Table 3; compounds of Table 1 as modulators of CFTR activity; protocol not stated.
Consider `CC(C)Oc1ccc(-c2ccc(C(=O)NS(=O)(=O)c3cccc(N)n3)c(N3[C@@H](C)CC[C@@H]3C)n2)cn1` [Compound 687, N-[(6-amino-2-pyridyl)sulfonyl]-2-[(2S,5S)-2,5-dimethylpyrrolidin-1-yl]-6-(6-isopropoxy-3-pyridyl)pyridine-3-carboxamide], for which the concentration for an effect of 30% (EC30) result was “++ (“++” means between 3 uM and 10 uM)”. On to `Cc1cc(C)c(Oc2nc(C(C)(C)C)ccc2C(=O)NS(=O)(=O)c2ccccc2)c(C)c1` [Compound 341, N-(benzenesulfonyl)-6-tert-butyl-2-(2,4,6-trimethylphenoxy)pyridine-3-carboxamide], for which the 30% effect concentration (EC30) result is given as “+++ (“+++” means <3 uM)”. The same measure, in the same setting: under `COc1cc(-c2ccc(C(=O)NS(=O)(=O)c3ccc[nH]c3=O)c(Oc3c(C)cc(C)cc3C)n2)ccc1F` [Compound 624, 6-(4-fluoro-3-methoxy-phenyl)-N-[(2-oxo-1H-pyridin-3-yl)sulfonyl]-2-(2,4,6-trimethylphenoxy)pyridine-3-carboxamide] stands “++ (“++” means between 3 uM and 10 uM)”.

Regarding `CC1CCN(c2nc(-c3cc(F)cc(OC(C)C)c3)ccc2C(=O)NS(=O)(=O)c2cccc(N)n2)CC1` [Compound 600, N-[(6-amino-2-pyridyl)sulfonyl]-6-(3-fluoro-5-isopropoxy-phenyl)-2-(4-methyl-1-piperidyl)pyridine-3-carboxamide], the 30% effect concentration (EC30) entry is “+++ (“+++” means <3 uM)”. Regarding `Cc1cc(C)c(Oc2nc(-c3ccc4c(c3)OCCO4)ccc2C(=O)NS(=O)(=O)c2cccc(N)n2)c(C)c1` [Compound 673, N-[(6-amino-2-pyridyl)sulfonyl]-6-(2,3-dihydro-1,4-benzodioxin-6-yl)-2-(2,4,6-trimethylphenoxy)pyridine-3-carboxamide], the EC30 entry was “+++ (“+++” means <3 uM)”.

In the case of `Cc1ccc2c(c1)cc(C(=O)NS(=O)(=O)c1cccc(N)n1)n2Cc1c(C)cc(C#N)cc1C` [Compound 67, N-[(6-amino-2-pyridyl)sulfonyl]-1-[(4-cyano-2,6-dimethyl-phenyl)methyl]-5-methyl-indole-2-carboxamide], the 30% effect concentration (EC30) result was “++ (“++” means between 3 uM and 10 uM)”. On the same count and under the same terms, as for `Cc1cc(C)c(Oc2nc(C3CCOCC3)ccc2C(=O)NS(=O)(=O)c2cccc(N)n2)c(C)c1` [Compound 748, N-[(6-amino-2-pyridyl)sulfonyl]-6-tetrahydropyran-4-yl-2-(2,4,6-trimethylphenoxy)pyridine-3-carboxamide], the entry is “++ (“++” means between 3 uM and 10 uM)”; as for `Cc1ccc(-c2ccc(C(=O)NS(=O)(=O)c3cc[nH]n3)c(Oc3c(C)cc(C)cc3C)n2)cc1` [Compound 300, 6-(p-tolyl)-N-(1H-pyrazol-3-ylsulfonyl)-2-(2,4,6-trimethylphenoxy)pyridine-3-carboxamide], “+++ (“+++” means <3 uM)”; as for `CC(C)COc1cc(F)cc(-c2ccc(C(=O)NS(=O)(=O)c3ccn[nH]3)c(NCC3CC(F)(F)C3)n2)c1` [Compound 393, 2-[(3,3-difluorocyclobutyl)methylamino]-6-(3-fluoro-5-isobutoxy-phenyl)-N-(1H-pyrazol-5-ylsulfonyl)pyridine-3-carboxamide], “++ (“++” means between 3 uM and 10 uM)”. In the case of `Cc1cc(C)c(Oc2nc(-c3cccc(OCC(C)C)c3)ccc2C(=O)NS(=O)(=O)c2cccc(N)n2)c(C)c1` [Compound 8, N-[(6-amino-2-pyridyl)sulfonyl]-6-(3-isobutoxyphenyl)-2-(2,4,6-trimethylphenoxy)pyridine-3-carboxamide], the EC30 result is reported as “+++ (“+++” means <3 uM)”. In the case of `CC(c1ccccc1)N1Cc2ccccc2C1C(=O)NS(=O)(=O)c1cccc(N)c1` (stereo not shown) [Compound 187, N-(3-aminophenyl)sulfonyl-2-(1-phenylethyl)isoindoline-1-carboxamide], the EC30 result is “++ (“++” means between 3 uM and 10 uM)”. The same measure, in the same setting: as for `CC(C)COc1cc(F)cc(-c2ccc(C(=O)NS(=O)(=O)c3cccc(N)n3)c(N3[C@H](C)CC[C@H]3C)n2)c1` [Compound 751, N-[(6-amino-2-pyridyl)sulfonyl]-2-[(2R,5R)-2,5-dimethylpyrrolidin-1-yl]-6-(3-fluoro-5-isobutoxy-phenyl)pyridine-3-carboxamide], the entry is “+++ (“+++” means <3 uM)”; as for `CC(C)Oc1ccc(-c2ccc(C(=O)NS(=O)(=O)c3cccc(N)n3)c(N3CC4CCC3C4)n2)cn1` (stereo not shown) [Compound 521, N-[(6-amino-2-pyridyl)sulfonyl]-2-(3-azabicyclo[2.2.1]heptan-3-yl)-6-(6-isopropoxy-3-pyridyl)pyridine-3-carboxamide], “++ (“++” means between 3 uM and 10 uM)”. Still for that read-out and setting: as for `CC(C)COc1cc(F)cc(-c2ccc(C(=O)NS(=O)(=O)c3ccn[nH]3)c(N3CCCCC3)n2)c1` [Compound 355, 6-(3-fluoro-5-isobutoxy-phenyl)-2-(1-piperidyl)-N-(1H-pyrazol-5-ylsulfonyl)pyridine-3-carboxamide], the entry is “+++ (“+++” means <3 uM)”. For `CC(C)Oc1ccc(-c2ccc(C(=O)NS(=O)(=O)c3cccc(N)n3)c(N3CCCC3c3ccccc3)n2)cn1` (stereo not shown) [Compound 509, N-[(6-amino-2-pyridyl)sulfonyl]-6-(6-isopropoxy-3-pyridyl)-2-(2-phenylpyrrolidin-1-yl)pyridine-3-carboxamide], the EC30 result is given as “+++ (“+++” means <3 uM)”.

(Values after US10758534B2 (Vertex Pharmaceuticals Incorporated, priority 2014, dated 2020).)
